Measurements taken from patent US6737383B1, “Herbicidal oxadiazolidines” (priority 1999, dated 2004).

Key:
cocklebur = test: Test B pre/postemergence cocklebur; format: in vivo, Xanthium strumarium
Outline: (§1)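 Herbicidal effect was estimated by eye on a ten-point control scale after plants spent twelve to sixteen days in a greenhouse following soil or foliar treatment. Foliar sprays targeted plants at one to four leaves; all doses were formulated in a non-phytotoxic solvent with surfactant.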

giant foxtail = test: Test B pre/postemergence giant foxtail; format: in vivo, Setaria faberii
Outline: as §1

morningglory = test: Test B pre/postemergence morningglory; format: in vivo, Ipomoea hederacea
Outline: as §1

surinam grass = test: Test B pre/postemergence surinam grass; format: in vivo, Brachiaria decumbens
Outline: as §1

rape = test: Test B pre/postemergence rape; format: in vivo, Brassica napus
Outline: as §1

purple nutsedge = test: Test B pre/postemergence purple nutsedge; format: in vivo, Cyperus rotundus
Outline: as §1

velvetleaf = test: Test B pre/postemergence velvetleaf; format: in vivo, Abutilon theophrasti
Outline: as §1

wheat = test: Test B pre/postemergence wheat; format: in vivo, Triticum aestivum
Outline: as §1

corn = test: Test B pre/postemergence corn; format: in vivo, Zea mays
Outline: as §1

bamyardgrass = test: Test B flood test barnyardgrass; format: in vivo, Echinochloa crus-galli
Outline: (§2)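 Plants were grown to the 2-leaf stage before treatment with test chemical, then held in a greenhouse for twelve to sixteen days. Injury was visually rated against untreated controls on a 0–10 scale, where 0 is no effect and 10 is complete control.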

crabgrass = test: Test B pre/postemergence crabgrass; format: in vivo, Digitaria sanguinalis
Outline: as §1

wild oat = test: Test B pre/postemergence wild oat; format: in vivo, Avena fatua
Outline: as §1

pigweed = test: Test B pre/postemergence pigweed; format: in vivo, Amaranthus retroflexus
Outline: as §1

sugar beet = test: Test B pre/postemergence sugar beet; format: in vivo, Beta vulgaris
Outline: as §1

rice = test: Test B flood test rice; format: in vivo, Oryza sativa
Outline: as §2

bedstraw = test: Test B pre/postemergence bedstraw; format: in vivo, Galium aparine
Outline: as §1

soybean = test: Test B pre/postemergence soybean; format: in vivo, Glycine max
Outline: as §1

smallflower flatsedge = test: Test B flood test smallflower flatsedge; format: in vivo, Cyperus difformis
Outline: as §2

blackgrass = test: Test B pre/postemergence blackgrass; format: in vivo, Alopecurus myosuroides
Outline: as §1

duck salad = test: Test B flood test duck salad; format: in vivo, Heteranthera limosa
Outline: as §2

[1] = Postemergence, Rate 62 g/ha, scale 0 to 10, 0 is no effect, 10 is complete control
[2] = Postemergence, Rate 250 g/ha, scale of 0 to 10, 0 is no effect, 10 is complete control
[3] = Postemergence, Rate 500 g/ha, scale of 0 to 10 where 0 is no effect and 10 is complete control
[4] = Preemergence, Rate 62 g/ha, scale 0 to 10 (0 no effect, 10 complete control)
[5] = Preemergence, Rate 125 g/ha, scale of 0 to 10 where 0 is no effect and 10 is complete control
[6] = Preemergence, Rate 250 g/ha, scale 0 to 10 (0 no effect, 10 complete control)
[7] = Preemergence, Rate 500 g/ha, scale of 0 to 10 where 0 is no effect and 10 is complete control
[8] = Rate 62 g/ha, flood test species, Pre-emergence, visual evaluation after twelve to sixteen days
[9] = Rate 125 g/ha, under heading Pre-emergence, flood test species, visual evaluation after twelve to sixteen days
[10] = Rate 250 g/ha, Pre-emergence (flood test species), scale 0 to 10, 0 is no effect, 10 is complete control
[11] = Rate 500 g/ha, Pre-emergence section of Table B, 0 to 10 scale (0 no effect, 10 complete control)

CC(=O)NCn1c(=O)on(C(=O)N(c2ccc(F)cc2F)C(C)C)c1=O [Compound 622]
0: Plant response rating, Cocklebur (cocklebur; [1]) | Cocklebur plant response rating (cocklebur; [2]) | Cocklebur plant response rating (cocklebur; [4]) | Cocklebur plant response rating (cocklebur; [5]) | Plant response rating, Cocklebur (cocklebur; [6]) | Plant response rating, Giant foxtail (giant foxtail; [1]) | Plant response rating, Morningglory (morningglory; [1]) | Morningglory plant response rating (morningglory; [4]) | Morningglory plant response rating (morningglory; [5]) | Plant response rating, Morningglory (morningglory; [6]) | Plant response rating, Morningglory (morningglory; [7]) | Plant response rating, B. signalgrass (surinam grass; [1]) | B. signalgrass plant response rating (surinam grass; [2]) | Plant response rating, B. signalgrass (surinam grass; [3]) | B. signalgrass plant response rating (surinam grass; [4]) | B. signalgrass plant response rating (surinam grass; [5]) | Plant response rating, B. signalgrass (surinam grass; [6]) | Plant response rating, Rape (rape; [1]) | Rape plant response rating (rape; [2]) | Plant response rating, Rape (rape; [3]) | Rape plant response rating (rape; [4]) | Rape plant response rating (rape; [5]) | Plant response rating, Rape (rape; [6]) | Plant response rating, Rape (rape; [7]) | Plant response rating, Nutsedge (purple nutsedge; [1]) | Nutsedge plant response rating (purple nutsedge; [2]) | Plant response rating, Nutsedge (purple nutsedge; [3]) | Nutsedge plant response rating (purple nutsedge; [4]) | Nutsedge plant response rating (purple nutsedge; [5]) | Plant response rating, Nutsedge (purple nutsedge; [6]) | Plant response rating, Velvetleaf (velvetleaf; [1]) | Velvetleaf plant response rating (velvetleaf; [2]) | Velvetleaf plant response rating (velvetleaf; [4]) | Velvetleaf plant response rating (velvetleaf; [5]) | Plant response rating, Velvetleaf (velvetleaf; [6]) | Plant response rating, Wheat (wheat; [1]) | Wheat plant response rating (wheat; [2]) | Wheat plant response rating (wheat; [4]) | Wheat plant response rating (wheat; [5]) | Plant response rating, Wheat (wheat; [6]) | Plant response rating, Wheat (wheat; [7]) | Plant response rating, Corn (corn; [1]) | Corn plant response rating (corn; [2]) | Plant response rating, Corn (corn; [3]) | Corn plant response rating (corn; [4]) | Corn plant response rating (corn; [5]) | Plant response rating, Corn (corn; [6]) | Plant response rating, Corn (corn; [7]) | Plant response rating, Barnyardgrass (0 to 10 scale, 0 is no effect, 10 is complete control) (bamyardgrass; [8]) | Barnyardgrass plant response rating (0 to 10 scale, 0 is no effect, 10 is complete control) (bamyardgrass; [9]) | Barnyardgrass plant response rating (bamyardgrass; [10]) | Barnyardgrass plant response rating (bamyardgrass; [11]) | Plant response rating, Wild oats (wild oat; [1]) | Wild oats plant response rating (wild oat; [2]) | Wild oats plant response rating (wild oat; [4]) | Wild oats plant response rating (wild oat; [5]) | Plant response rating, Wild oats (wild oat; [6]) | Plant response rating, Redroot pigweed (pigweed; [1]) | Redroot pigweed plant response rating (pigweed; [2]) | Plant response rating, Sugarbeets (sugar beet; [1]) | Sugarbeets plant response rating (sugar beet; [4]) | Sugarbeets plant response rating (sugar beet; [5]) | Plant response rating, Sugarbeets (sugar beet; [6]) | Plant response rating, Rice (0 to 10 scale, 0 is no effect, 10 is complete control) (rice; [8]) | Rice plant response rating (0 to 10 scale, 0 is no effect, 10 is complete control) (rice; [9]) | Rice plant response rating (rice; [10]) | Rice plant response rating (rice; [11]) | Plant response rating, Bedstraw (bedstraw; [1]) | Bedstraw plant response rating (bedstraw; [4]) | Bedstraw plant response rating (bedstraw; [5]) | Soybean plant response rating (soybean; [4]) | Soybean plant response rating (soybean; [5]) | Plant response rating, Soybean (soybean; [6]) | Plant response rating, Soybean (soybean; [7]) | Plant response rating, S. Flatsedge (0 to 10 scale, 0 is no effect, 10 is complete control) (smallflower flatsedge; [8]) | S. Flatsedge plant response rating (0 to 10 scale, 0 is no effect, 10 is complete control) (smallflower flatsedge; [9]) | S. Flatsedge plant response rating (smallflower flatsedge; [10]) | S. Flatsedge plant response rating (smallflower flatsedge; [11]) | Plant response rating, Blackgrass (blackgrass; [1]) | Blackgrass plant response rating (blackgrass; [2]) | Plant response rating, Blackgrass (blackgrass; [3]) | Plant response rating, Ducksalad (0 to 10 scale, 0 is no effect, 10 is complete control) (duck salad; [8]) | Ducksalad plant response rating (0 to 10 scale, 0 is no effect, 10 is complete control) (duck salad; [9]) | Ducksalad plant response rating (duck salad; [10]) | Ducksalad plant response rating (duck salad; [11])
7: Plant response rating, Giant foxtail (giant foxtail; [3]) | Plant response rating, Crabgrass (crabgrass; [6]) | Redroot pigweed plant response rating (pigweed; [5])
1: Blackgrass plant response rating (blackgrass; [4])
2: Plant response rating, Cocklebur (cocklebur; [3]) | Morningglory plant response rating (morningglory; [2]) | Plant response rating, Morningglory (morningglory; [3]) | Plant response rating, Crabgrass (crabgrass; [1]) | Sugarbeets plant response rating (sugar beet; [2]) | Plant response rating, Bedstraw (bedstraw; [7]) | Blackgrass plant response rating (blackgrass; [5])
9: Plant response rating, Giant foxtail (giant foxtail; [6]) | Plant response rating, Giant foxtail (giant foxtail; [7])
6: Giant foxtail plant response rating (giant foxtail; [2]) | Crabgrass plant response rating (crabgrass; [4]) | Crabgrass plant response rating (crabgrass; [5]) | Soybean plant response rating (soybean; [2]) | Plant response rating, Blackgrass (blackgrass; [7])
10: Plant response rating, Redroot pigweed (pigweed; [6]) | Plant response rating, Redroot pigweed (pigweed; [7])
4: Giant foxtail plant response rating (giant foxtail; [4]) | Plant response rating, B. signalgrass (surinam grass; [7]) | Plant response rating, Velvetleaf (velvetleaf; [7]) | Redroot pigweed plant response rating (pigweed; [4]) | Plant response rating, Soybean (soybean; [1])
3: Plant response rating, Nutsedge (purple nutsedge; [7]) | Plant response rating, Wild oats (wild oat; [7]) | Plant response rating, Sugarbeets (sugar beet; [7]) | Plant response rating, Blackgrass (blackgrass; [6])
8: Plant response rating, Crabgrass (crabgrass; [7])
5: Plant response rating, Crabgrass (crabgrass; [3])
